Data as given in patent US20120264827A1, “SULFANYLAMIDE DERIVATIVES, USES THEREOF AND COMPOSITIONS COMPRISING THEM” (YISSUM RESEARCH DEVELOPMENT COMPANY OF THE HEBREW …, priority 2009, published 2012).
Where two headings read alike, the source gives them in different places.

Experiments:
[1] = system: maximal electroshock seizure (MES); experiment: Maximal electroshock seizure test (MES), mice, intraperitoneal; assay type: in vivo; conditions: ip;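 further: adult male CF no. 1 albino mice of 18–25 g, given compound intraperitoneally as a 0.5% methylcellulose suspension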
[2] = system: subcutaneous metrazol (pentylenetetrazol) seizure; experiment: Subcutaneous metrazol seizure threshold test (scMet), mice, intraperitoneal; assay type: in vivo; conditions: ip;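 further: adult male CF no. 1 albino mice weighing 18-25 g, dosed intraperitoneally with compounds suspended in 0.5% methylcellulose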
[3] = system: maximal electroshock seizure (MES); experiment: Maximal electroshock seizure test (MES), rats, oral; conditions: Rattus norvegicus, po, read-out: Anti-MES activity (number of animals protected/number of animals tested);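 further: adult male Sprague-Dawley rats received test compounds by mouth as a suspension in 0.5% methylcellulose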
Protocol: The tested compounds were suspended in 0.5% methylcellulose and administered (a) intraperitioneally (ip) to adult male CF no. 1 albino mice (18-25 g) in volume of 0.01 mL/g body weight and (b) orally to adult male Sprague-Dawley albino rats (100-150 g) in volume of 0.04 mL per 10 g of body weight.
The TD50 was determined by varying the dose of the tested compounds until four points were established between the dose level that induced no signs of minimal motor impairment in any of the animals and the dose at which all the animals were considered impaired. […] The PIs were calculated by dividing the TD50 by the ED50.

[4] = 30 mg/kg, 0.5 h after administration
[5] = 30 mg/kg, 4 h after administration
[6] = 100 mg/kg, 0.5 h after administration
[7] = 100 mg/kg, 4 h after administration
[8] = 300 mg/kg, 0.5 h after administration
[9] = 300 mg/kg, 4 h after administration

Row | SMILES | MES (number of animals protected/number of animals tested) [1, 4] | MES (number of animals protected/number of animals tested) [1, 5] | MES (number of animals protected/number of animals tested) [1, 6] | MES (number of animals protected/number of animals tested) [1, 7] | MES (number of animals protected/number of animals tested) [1, 8] | MES (number of animals protected/number of animals tested) [1, 9] | scMet (number of animals protected/number of animals tested) [2, 4] | scMet (number of animals protected/number of animals tested) [2, 5] | scMet (number of animals protected/number of animals tested) [2, 6] | scMet (number of animals protected/number of animals tested) [2, 7] | scMet (number of animals protected/number of animals tested) [2, 8] | scMet (number of animals protected/number of animals tested) [2, 9] | responders at 30 mg/kg ([3]; 0.5 h) [%] | responders at 30 mg/kg ([3]; 1 h) [%] | responders at 30 mg/kg ([3]; 2 h) [%] | responders at 30 mg/kg ([3]; 4 h) [%] | responders at 30 mg/kg ([3]; […]) [%] | melting point [°C]
1 | CC(C)(C)CC(=O)Nc1ccc(S(N)(=O)=O)cc1 [Compound 15, 3,3-Dimethyl-N-(4-sulfamoyl-phenyl)-butyramide] | 0/1 | 0/1 | 5/7 | 1/3 | 4/5 | 1/1 | 0/1 0/1 0/1 | 0/1 0/1 0/1 | 0/1 0/1 0/1 | 0/1 0/1 0/1 | 0/1 0/1 0/1 | 0/1 0/1 0/1 | 25 | 75 | 100 | 100 | 75 | 
2 | CCC(C)CC(=O)Nc1ccc(S(N)(=O)=O)cc1 (stereo not drawn) [Compound 24, 3-Methyl-N-(4-sulfamoyl-phenyl)-pentanamide] | 0/1 | 0/1 | 0/3 | 0/3 | 0/1 | 0/1 | 0/1 0/1 0/1 | 0/1 0/1 0/1 | 0/1 0/1 0/1 | 0/1 0/1 0/1 | 0/1 0/1 0/1 | 0/1 0/1 0/1 |  |  |  |  |  | 
3 | CCCC(C(=O)Nc1ccc(S(N)(=O)=O)cc1)C(C)(C)C (stereo not drawn) [Compound 22, 2-tert-Butyl-N-(4-sulfamoyl-phenyl)-pentanamide] | 0/1 | 0/1 | 0/3 | 0/3 | 0/1 | 0/1 | 0/1 0/1 0/1 | 0/1 0/1 0/1 | 0/1 0/1 0/1 | 0/1 0/1 0/1 | 0/1 0/1 0/1 | 0/1 0/1 0/1 |  |  |  |  |  | 
4 | CCCC(CC)C(=O)Nc1ccc(S(N)(=O)=O)cc1 (stereo not drawn) [Compound 17, 2-Ethyl-N-(4-sulfamoyl-phenyl)-pentanamide] | 0/1 | 0/1 | 0/3 | 1/3 | 0/1 | 1/1 | 0/1 0/1 0/1 | 0/1 0/1 0/1 | 0/1 0/1 0/1 | 0/1 0/1 0/1 | 0/1 0/1 0/1 | 0/1 0/1 0/1 |  |  |  |  |  | 
5 | CC(C)C(C(=O)Nc1ccc(S(N)(=O)=O)cc1)C(C)(C)C (stereo not drawn) [Compound 14, 2-Isopropyl-3,3-dimethyl-N-(4-sulfamoyl-phenyl)-butyramide] | 0/1 | 0/1 | 0/3 | 3/3 | 0/1 | 1/1 | 0/1 0/1 0/1 | 0/1 0/1 0/1 | 0/1 0/1 0/1 | 0/1 0/1 0/1 | 0/1 0/1 0/1 | 0/1 0/1 0/1 |  |  |  |  |  | 
6 | CC(C)C(C(=O)Nc1ccc(S(N)(=O)=O)cc1)C(C)C [Compound 13, 2-Isopropyl-3-methyl-N-(4-sulfamoyl-phenyl)-butyramide] | 0/1 | 0/1 | 0/3 | 0/3 | 0/1 | 0/1 | 0/1 0/1 0/1 | 0/1 0/1 0/1 | 0/1 0/1 0/1 | 0/1 0/1 0/1 | 0/1 0/1 0/1 | 0/1 0/1 0/1 | 0 | 0 | 0 | 50 | 0 | 
7 | CCC(CC)C(=O)NCCc1ccc(S(N)(=O)=O)cc1 [Compound 29, 2-Ethyl-N-[2-(4-sulfamoyl-phenyl)-ethyl]-butyramide] | 0/1 | 1/1 | 0/3 | 1/3 | 0/1 | 1/1 | 0/1 0/1 0/1 | 0/1 0/1 0/1 | 0/1 0/1 0/1 | 0/1 0/1 0/1 | 0/1 0/1 0/1 | 0/1 0/1 0/1 | 50 | 75 | 25 | 25 | 25 | 
8 | CCC(C)C(=O)Nc1ccc(S(N)(=O)=O)cc1 (stereo not drawn) [Compound 10, 2-Methyl-N-(4-sulfamoyl-phenyl)-butyramide] | 1/1 | 1/1 | 3/3 | 3/3 | 1/1 | 1/1 | 0/1 0/1 0/1 | 0/1 0/1 0/1 | 0/1 0/1 0/1 | 0/1 0/1 0/1 | 0/1 0/1 0/1 | 0/1 0/1 0/1 | 50 | 100 | 100 | 100 | 50 | 
9 | CC(C)(C)C(=O)NCc1ccc(S(N)(=O)=O)cc1 [Compound 26, 2,2-Dimethyl-N-(4-sulfamoyl-benzyl)-propionamide] | 0/1 | 0/1 | 0/3 | 0/3 | 0/1 | 0/1 | 0/1 0/1 0/1 | 0/1 0/1 0/1 | 0/1 0/1 0/1 | 0/1 0/1 0/1 | 0/1 0/1 0/1 | 0/1 0/1 0/1 |  |  |  |  |  | 157 to 158
10 | CCC(C(=O)Nc1ccc(S(N)(=O)=O)cc1)C(C)(C)C (stereo not drawn) [Compound 12, 2-Ethyl-3,3-dimethyl-N-(4-sulfamoyl-phenyl)-butyramide] | 0/1 | 0/1 | 0/3 | 1/3 | 0/1 | 1/1 | 0/1 0/1 0/1 | 0/1 0/1 0/1 | 0/1 0/1 0/1 | 0/1 0/1 0/1 | 0/1 0/1 0/1 | 0/1 0/1 0/1 |  |  |  |  |  | 
